# Measured values: patent US10870638B2, “Pyridazinone compound or its salt, and herbicide containing it” (ISHIHARA SANGYO KAISHA, LTD., priority 2016, dated 2020)
# Key:
# Assay in all cases: Test Example 1: foliar treatment, growth inhibition rate on 14th day
# Type in all cases: in vivo
# Settings in all cases: active ingredient amount 31 g/ha, 14th day after application
# [1] = tested on: barnyardgrass (Echinochloa crus-qalli L.)
# Description: (§1) Upland field soil was put into a 1/300,000 hectare pot, and seeds of various plants were sown. When the respective plants reached predetermined leaf stage ((1) barnyardgrass (Echinochloa crus-[…].): 0.5 to 2.9 leaf stage, (2) crabgrass (Digitaria sanquinalis L.): 0.5 to 3.0 leaf stage, (3) green foxtail (Setaria viridis L.): 0.5 to 3.2 leaf stage, (4) wild oat (Avena fatua L.): 0.4 to 1.2 leaf stage, (5) italian ryegrass (Lolium multiflorum Lam.): 0.4 to 2.0 leaf stage, (6) redroot pigweed (Amaranthus retroflexus L.): cotyledon stage to 2.2 leaf stage, (7) rice (Oryza sativa L.): 0.2 to 2.7 leaf stage, (8) corn (Zea mays L.): 1.7 to 3.6 leaf stage, (9) wheat (Triticum aestivum L.): 1.3 to 2.3 leaf stage, (10) soybean (Glycine max Merr.); primary leaf stage), wettable powders or emulsifiable concentrates of the compounds of the present invention prepared in accordance with a conventional preparation method, were weighed so as to achieve the prescribed active ingredient amounts, and diluted with water in an amount corresponding to 1,000 liters per 1 hectare (containing 0.1 vol % of an agricultural spreader (surfactant WK manufactured by MARUWA BIOCHEMICAL Co., Ltd.)), and the spray solutions thus prepared were applied for foliar treatment by a small sprayer. On the 14th day after the application, the state of growth of the respective plants was visually observed, and the herbicidal effect was evaluated by a growth inhibition rate (%) of 0 (equivalent to the non-treated area) to 100 (complete kill).
# corn (Zea mays L.) = tested on: corn (Zea mays L.)
# Description: as §1
# [2] = tested on: crabgrass (Digitaria sanquinalis L.)
# Description: as §1
# [3] = tested on: green foxtail (Setaria viridis L.)
# Description: as §1
# [4] = tested on: italian ryegrass (Lolium multiflorum Lam.)
# Description: as §1
# [5] = tested on: redroot pigweed (Amaranthus retroflexus L.)
# Description: as §1
# rice (Oryza sativa L.) = tested on: rice (Oryza sativa L.)
# Description: as §1
# [6] = tested on: soybean (Glycine max Merr.)
# Description: as §1
# [7] = tested on: wheat (Triticum aestivum L.)
# Description: as §1
# [8] = tested on: wild oat (Avena fatua L.)
# Description: as §1
# [9] = visual, 0 = non-treated, 100 = complete kill
SMILES,Growth inhibition rate (%) Barnyardgrass [1],Growth inhibition rate (%) Corn (corn (Zea mays L.)),Growth inhibition rate (%) Crabgrass [2],Growth inhibition rate (%) Green foxtail [3],Growth inhibition rate (%) Italian ryegrass [4],Growth inhibition rate (%) Redroot pigweed [5],Growth inhibition rate (%) Rice (rice (Oryza sativa L.)),Growth inhibition rate (%) Soybean [6],Growth inhibition rate (%) Wheat [7],Growth inhibition rate (%) Wild oat [8],"Growth inhibition rate (%) Barnyardgrass [1, 9]",Growth inhibition rate (%) Corn (corn (Zea mays L.); [9]),"Growth inhibition rate (%) Crabgrass [2, 9]","Growth inhibition rate (%) Green foxtail [3, 9]","Growth inhibition rate (%) Italian ryegrass [4, 9]","Growth inhibition rate (%) Redroot pigweed [5, 9]",Growth inhibition rate (%) Rice (rice (Oryza sativa L.); [9]),"Growth inhibition rate (%) Soybean [6, 9]","Growth inhibition rate (%) Wheat [7, 9]","Growth inhibition rate (%) Wild oat [8, 9]"
Cc1ccc(Oc2ncc(C(F)(F)F)cc2Cl)cc1-c1c(OC(C)OC(=O)OC(C)C)c(C)nn(C)c1=O (centres unmarked) [1-133],88%,0%,0%,30%,0%,0%,0%,0%,0%,40%,–,–,–,–,–,–,–,–,–,–
CCCSC(=O)Oc1c(C)nn(C)c(=O)c1-c1cc(Oc2cnc3cc(Cl)ccc3n2)ccc1C [Compound 3-56],–,–,–,–,–,–,–,–,–,–,98%,40%,99%,100%,98%,0%,0%,30%,93%,99%
Cc1ccc(Oc2ncc3cc(Br)ccc3n2)cc1-c1c(O)c(C)nn(C)c1=O [Compound 2-90],90%,0%,0%,75%,10%,0%,0%,0%,20%,0%,–,–,–,–,–,–,–,–,–,–
COCCOCOc1c(C)nn(C)c(=O)c1-c1cc(Oc2cnc3cc(Cl)ccc3n2)ccc1C [Compound 3-75],–,–,–,–,–,–,–,–,–,–,99%,10%,95%,99%,98%,0%,0%,0%,95%,98%
CC(=O)Oc1c(C)nn(C)c(=O)c1-c1cc(Oc2nccc(C(F)(F)F)c2Cl)ccc1C [Compound 2-131],85%,40%,65%,98%,78%,10%,10%,10%,45%,50%,–,–,–,–,–,–,–,–,–,–
CC(=O)Oc1c(C)nn(C)c(=O)c1-c1cc(Oc2ncc(Cl)cc2Cl)ccc1C [Compound 2-128],85%,75%,83%,75%,93%,0%,45%,0%,60%,88%,–,–,–,–,–,–,–,–,–,–
Cc1ccc(Oc2cnc3cc(Cl)ccc3n2)cc1-c1c(OC(=O)OC(C)C)c(C)nn(C)c1=O [Compound 3-60],–,–,–,–,–,–,–,–,–,–,99%,20%,95%,100%,95%,0%,10%,10%,93%,98%
Cc1ccc(Oc2cnc3cc(Cl)ccc3n2)cc1-c1c(OC(=O)OC2CC(C)CCC2C(C)C)c(C)nn(C)c1=O (centres unmarked) [Compound 3-61],–,–,–,–,–,–,–,–,–,–,0%,20%,20%,60%,0%,0%,0%,0%,0%,0%
